The test system of one assay is Sudhl5. In words: Cell viability assay. To be noted: Homo sapiens, SU-DHL-5, 24 h; Sudhl5 (NHL); read-out: AZD5991 24h GI50. In kind it is cell-based.
A further assay has as its system U2932. The experiment in a line: Cell viability assay. In kind it is cell-based. To be noted: Homo sapiens, 24 h; U2932 (NHL); read-out: AZD5991 24h GI50.
For a further assay, the target named is Bcl-xL (Homo sapiens, UniProt Q07817). In words: TR-FRET binding assay. The source says:
(§1) N-terminal GST-tagged-Mcl-1 protein from Mcl-1 (E171-G327), N-terminal GST-tagged Bcl-xL protein from Bcl-xL (1-209), N-Terminal 6His-tagged Bfl-1 protein from Bfl-1 (M1-K151), N-Terminal 6His-tagged Bcl-w protein from Bcl-w (M1-R171), and C-Terminal 6His-tagged Bcl-2 protein from Bcl-2 (M1-F212) were expressed as a tagged fusion protein in E. coli and subsequently purified via Glutathione Sepharose-affinity or Ni-NTA resin purification, and size-exclusion chromatography.
(§2) For TR-FRET, tagged fusion proteins were incubated with a Europium-labeled antibody and a HyLite Fluor 647-labeled peptide, or a biotin-labeled peptide with a streptavidin-labeled ulight fluorophore allowing the assembly of donor and acceptor dye pairs for use in protein-binding assays.
(§3) The reaction final concentrations for Mcl-1 were 1.5 nM GST-Mcl-1, 0.5 nM LanthaScreen Eu tagged GST antibody (LifeTechnologies cat#PV5594), and 4 nM HyLite Fluor 647-labeled Bim peptide C (Hilyte647 C2 Maleimide)-[…]; for Bcl-xl were 2 nM GST-Bcl-xl, 2 nM LanthaScreen Eu-tagged GST antibody, and 10 nM HyLite Fluor 647-labeled BAK peptide C(Hilyte647 C2 Maleimide)-[…]; for Bfl-1 were 4 nM His-Bfl-1, 0.5 nM LanthaScreen Eu-tagged HIS antibody (PerkinElmer cat#AD0205), and 10 nM HyLite Fluor 647-labeled BIM peptide C(Hilyte647-C2-Maleimide)-[…]; for Bcl-2 and Bcl-w: 2 nM His-Bcl-2, or 2 nM His-Bcl-w, with 0.5 nM LanthaScreen Eu-tagged HIS antibody, 10 nM biotin-labeled Bim peptide (Biotin-lc-[…]), and 2.4 nM a streptavidin labeled ULight Fluorophore (PerkinElmer cat#TRF0102-D). Reactions were incubated at 24 °C for 120–180 min before reading on a Tecan (InfiniteM1000 spectrofluorometer) with excitation at 340 nm and emission at […] and 665 nm. Ratio of fluorescent emission intensity at 665–620 nm was calculated for each reaction (equation 1). Percent inhibition was calculated based upon min (control compound) vs. max (DMSO) according to Eq. (2) and the IC50 was derived the smart fit curve (Genedata screener) of % inhibition vs. concentration. Ki values were calculated from Eq. […]
In general terms: Time-resolved FRET reads energy transfer from a long-lived donor to a nearby acceptor.

The target of a further assay is T1, Bfl-1 (Homo sapiens, UniProt Q16548).
T1 construct: N-Terminal 6His-tagged Bfl-1 protein from Bfl-1 (M1-K151); made in house; host or cells: E. coli
The experiment in a line: TR-FRET binding assay.
Source text: as §1, §2, §3

The target of another assay is T2, Bcl-w (Homo sapiens, UniProt Q92843).
T2 construct: N-Terminal 6His-tagged Bcl-w protein from Bcl-w (M1-R171); made in house; host or cells: E. coli
T2 sequence (Q92843 1-171): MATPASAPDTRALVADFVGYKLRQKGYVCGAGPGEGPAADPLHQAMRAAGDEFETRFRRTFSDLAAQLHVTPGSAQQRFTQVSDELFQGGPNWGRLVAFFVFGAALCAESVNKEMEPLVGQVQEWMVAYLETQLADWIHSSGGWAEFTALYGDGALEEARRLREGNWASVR
In words: TR-FRET binding assay.
Source text: as §1, §2, §3

The next assay addresses T3, Bcl-2 (Homo sapiens, UniProt P10415).
T3 construct: C-Terminal 6His-tagged Bcl-2 protein from Bcl-2 (M1-F212); made in house; host or cells: E. coli
In words: TR-FRET binding assay.
Source text: as §1, §2, §3

The next assay concerns OCIAML3. The experiment in a line: Cell viability assay. Format: cell-based. To be noted: Homo sapiens, OCI-AML-3, 24 h, read-out: AZD5991 24h GI50.
The next assay has as its system H446. The experiment in a line: Cell viability assay. Conditions: Homo sapiens, NCI-H446, 24 h; H446 (Lung); read-out: AZD5991 24h GI50. In kind it is cell-based.
The test system of a further assay is RCK8. In words: Cell viability assay. Format: cell-based. To be noted: Homo sapiens, 24 h; RCK8 (NHL); read-out: AZD5991 24h GI50.
The next assay deals with primary MM cells. Conditions: 48 MM patients, 24 h, Annexin V by flow.
The next assay concerns A101D. In words: Cell viability assay. In kind it is cell-based. To be noted: Homo sapiens, 24 h; A101D (Skin); read-out: AZD5991 24h GI50.
The test system of a further assay is Karpas422. In words: Cell viability assay. Conditions: Homo sapiens, KARPAS-422, 24 h; Karpas422 (NHL); read-out: AZD5991 24h GI50. Format: cell-based.
Another assay deals with Sudhl6. In words: Cell viability assay. In kind it is cell-based. Conditions: Homo sapiens, SU-DHL-6, 24 h; Sudhl6 (NHL); read-out: AZD5991 24h GI50.

T1 sequence (Q16548 1-151): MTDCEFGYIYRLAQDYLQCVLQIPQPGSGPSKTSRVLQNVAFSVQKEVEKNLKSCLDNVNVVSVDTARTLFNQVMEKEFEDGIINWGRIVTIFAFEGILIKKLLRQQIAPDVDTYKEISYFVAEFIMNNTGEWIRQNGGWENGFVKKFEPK
Chain of Bcl-xL (Q07817 1-209): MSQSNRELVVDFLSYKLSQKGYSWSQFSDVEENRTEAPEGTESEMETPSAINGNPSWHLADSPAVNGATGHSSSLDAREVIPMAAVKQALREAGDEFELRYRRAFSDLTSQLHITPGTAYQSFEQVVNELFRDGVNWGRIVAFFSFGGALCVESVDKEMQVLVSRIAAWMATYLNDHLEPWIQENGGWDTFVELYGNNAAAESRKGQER
T3 sequence (P10415 1-212): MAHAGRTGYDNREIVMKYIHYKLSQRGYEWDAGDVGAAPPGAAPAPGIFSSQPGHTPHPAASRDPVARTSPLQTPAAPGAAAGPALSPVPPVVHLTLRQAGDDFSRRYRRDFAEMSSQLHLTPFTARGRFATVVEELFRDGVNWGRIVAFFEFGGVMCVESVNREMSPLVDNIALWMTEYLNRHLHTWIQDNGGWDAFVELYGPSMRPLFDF
Protocol for A101D: (§4) Cells were plated at 3000 cells/well in 384-well white plates in corresponding cell growth media. […] Caspase-3/7 activation was subsequently determined using a Caspase-Glo 3/7 Reagent (Promega) and viability was assayed using the CellTiter-Glo Reagent (Promega) as described in manufacturer’s instructions. Dose–response curves for caspase-3/7 activation and viability were plotted and analyzed (including EC50 and GI50 determination) using GraphPad Prism.
Protocol for H446: as §4
Protocol for Karpas422: as §4
Protocol for OCIAML3: as §4
Protocol for RCK8: as §4
Protocol for Sudhl5: as §4
Protocol for Sudhl6: as §4
Protocol for U2932: as §4

Consider `Cc1c2c(nn1C)CSCc1cc(n(C)n1)CSc1cc(c3ccccc3c1)OCCCc1c(C(=O)O)n(C)c3c-2c(Cl)ccc13` (atropisomer, axis not shown; (Ra)) [(Ra)-7], for which the GI50 in the assay on Sudhl5 is 0.018 µM; in the assay on U2932 it was 15.5 µM; in the assay with OCIAML3, 0.714 µM; in the assay with H446, 0.319 µM; in the assay on RCK8 it was over 30 µM; in the assay with A101D, 0.175 µM. Also, the GI50 with Karpas422 was 0.49 µM; in the assay on Sudhl6, 0.015 µM. The IC50 on Bcl-xL (FRET) was found to be 36 µM; on Bfl-1 (FRET), 24 µM; on Bcl-w (FRET) it was 49 µM; at Bcl-2 (FRET), 20 µM. For the same molecule, the Ki at Bcl-xL (calculated from FRET IC50) was 18 µM; on Bfl-1 (calculated from FRET IC50), 12 µM; at Bcl-w (calculated from FRET IC50) it was 25 µM; at Bcl-2 (calculated from FRET IC50), 6.8 µM. Moreover, in the assay with primary MM cells, the “MM primary samples with EC50 values below 100 nM” value came out at 71%.

What is called GI50 is the concentration that inhibits growth by half. For orientation: IC50 means the concentration needed to halve the response being measured. A high value points to lower potency. What is called Ki is the equilibrium dissociation constant of an inhibitor or competing ligand from its target.

Values taken from paper PMC6297231 (Nature Communications, 2018).
